The text below walks through data of PMC7927014, “Novel Small Molecule Hsp90/Cdc37 Interface Inhibitors Indirectly Target K-Ras-Signaling” (Cancers, 2021).

Where a name gives a salt, the structure may show the parent alone.

One assay deals with T1, N-Hsp90/Cdc37 (Homo sapiens, UniProt P07900).
T1 construct: only the N-terminal ATP-ase domain of Hsp90 (N-Hsp90, residues 1-223); expressed in transfected cells; host or cells: HEK293 EBNA cells, cleared lysates
In words: N-Hsp90/Cdc37 split Renilla luciferase assay (N-terminal Hsp90 fragment, residues 1-223). Type of assay: biochemical. The settings on record: cell lysate. Here is the method: (§1) The Hsp90/Cdc37 split Renilla luciferase assay using the full length Hsp90 for the compound screening was described previously. […] After 48 h, the cells were trypsinized and washed with PBS. The harvested cells were lysed in 1 mL of the 1x lysis buffer provided in the Renilla Luciferase Reporter Assay System Kit from Promega (cat. E2820), and were incubated on ice for 10 min. The cell lysates were then cleared by centrifugation at 13,000× g for 1 min. […] After this, the screening/test compounds or DMSO—as indicated—were added to each well. In total, 5 µL NRL-Hsp90- or NRL-N-Hsp90-lysate was added to each well, one row at a time. Subsequently, the plate was incubated for 5 min at room temperature (RT). […] Just before the reading, 20 µL assay buffer containing 2× Renilla luciferase substrate (coelenterazine) was added. For the FIMM screening, sample wells were read on a PHERAstar plate reader (BMG LABTECH) at a gain level of 4000, after 10 s shaking, using a hypomorph of NRL-Hsp90. For the subsequent validations of the compounds, sample wells with the above-described assay constructs were read using a synergy H1 Hybrid Multi-Mode reader (BioTek) in the luminescence detection mode, as described previously in detail.

In assay [1] the target is T2, Hsp90/Cdc37 (Homo sapiens, UniProt P07900).
T2 construct: The Hsp90/Cdc37 split Renilla luciferase assay using the full length Hsp90 for the compound screening was described previously; expressed in transfected cells; host or cells: HEK293 EBNA cells, cleared lysates
Briefly: Hsp90/Cdc37 split Renilla luciferase assay, full length Hsp90 (cell lysate; IC50 and 20 μM validation). Format: biochemical. The settings on record: for normalized RLU / Average RLU: MolPort Screening-3, tested concentration of drugs 20 μM; for normalized RLU: RLU normalized to DMSO (=1.00); for Average RLU: average of 3 wells (DMSO 248028); for IC50: full length Hsp90, split Renilla luciferase assay, cell lysate. The protocol: (§2) In the second in silico screening of the FIMM database, we employed the four identified chemical scaffolds (Figure S2B) for the visual inspection of the FIMM compound library. […] All of the purchased compounds were validated in vitro at 20 μM using the split Renilla luciferase assay.
as §1

Assay [2] relates to Hsp90/Cdc37. In words: FIMM screening in split Renilla luciferase assay with hypomorphic NRL-Hsp90 construct, 20 μM. Type of assay: biochemical. The settings on record: for normalized RLU (FIMM Screening-2, scaffold based) / normalized RLU (FIMM Screening-1): DMSO = 1.00; for Average RLU (FIMM Screening-2, scaffold based) / Average RLU (FIMM Screening-1): mean of 3 wells; for Average RLU (FIMM Screening-2, scaffold based): DMSO 51006; for Average RLU (FIMM Screening-1): DMSO 50019. The protocol: as §2, §1

In another assay the test system is MDA-MB-231 cells. In words: Tumorosphere assay (low adhesion, serum-free 3D spheroid culture). Format: cell-based. The settings on record: MDA-MB-231, 20 μM, 72 h. Here is the method:
(§3) Per well, 2000 cells were seeded in flat bottom 96-well suspension culture plates (cat. no. 655185, Cellstar, Greiner Bio-One) in 100 µL DMEM or RPMI media containing 1× B27 (cat. no. 17504044, Gibco, Thermo Fisher Scientific), 25 ng/mL EGF (cat. no. E9644, Sigma-Aldrich), and 25 ng/mL FGF (cat. no. RP-8628, Thermo Fisher Scientific), 20% MethoCult H4100 (cat. no. 04100, […] Technologies). After 2 days, 50 µL media containing 0.3% DMSO or 3× the concentration of the indicated compounds were added to the wells in a 1:2 dilution-series, starting at 100 µM. After 72 h of treatment, 10% (v/v) alamarBlue reagent (cat. no. DAL1100, Thermo Fisher Scientific) was added to each well. Then, the fluorescence intensity (excitation 560 nm and emission 590 nm) was measured after 4 h using a H1 Hybrid Multi-Mode reader (BioTek).

In a further assay the test system is SK-BR-3 cells. Described as above. Type of assay: cell-based. The conditions noted are these: SK-BR-3, 20 μM, 72 h. Here is the method:
as §3

A further assay relates to HCC-44 cells. The assay is described as above. Format: cell-based. The conditions noted are these: HCC-44, 20 μM, 72 h. Here is the method:
as §3

The subject of another assay is MIA PaCa-2 cells. Described as above. Type of assay: cell-based. The settings on record: MIA PaCa-2, 20 μM, 72 h. Here is the method: as §3
The target of the next assay is T3, Hsp90α (N-terminal) (Homo sapiens, UniProt P07900).
T3 construct: purchased BPS Bioscience 50298
Briefly: Hsp90 N-terminal ATP-binding site competition assay (FITC-geldanamycin fluorescence polarization). The settings on record: 20 μM compound. Here is the method:
The reaction was initiated by adding 35 ng/μL purified recombinant Hsp90α, and was incubated at RT with slow shaking for 2 h. All of the reactions were performed in a black, low binding NUNC microtiter plate, included in the kit, and the total reaction volume was 50 μL. The enzyme control was measured without the test compound, and the enzyme background control was measured without the test compound or Hsp90α. […] All of the controls and the blank contained 10% DMSO, as did all of the samples of the test compounds. All of the samples were analyzed as duplicates. […] The blank value was subtracted from all of the other values, and the fluorescence polarization was determined as:(1) mP = ((III − I⊥)/(III+ I⊥)) × 1000 where III is the intensity of the parallel, and I┴ the intensity of the perpendicular polarized light.
In general terms: Polarisation of emitted light reports the rotation of a fluorescent probe.

With `O=C(O[C@@H]1Cc2c(O)cc(O)cc2O[C@@H]1c1ccc(O)c(O)c1)c1cc(O)c(O)c(O)c1` [M15, (2R,3R)-2-(3,4-dihydroxyphenyl)-5,7-dihydroxy-3,4-dihydro-2H-1-benzopyran-3-yl 3,4,5-trihydroxybenzoate (epicatechin gallate)], on N-Hsp90/Cdc37, the IC50 (as a rule, the concentration at which inhibition is half-maximal) came to 4.8 ± 0.7 µM. For the same molecule, at Hsp90/Cdc37 [1], the “normalized RLU” value was found to be 0.33, the “Average RLU” value is 80961 RLU and the IC50 is 28 ± 4 µM.

For `N=C(N)SCc1cc(=O)[nH]c(=O)[nH]1` [SC5, {[(2,6-dioxo-1,2,3,6-tetrahydropyrimidin-4-yl)methyl]sulfanyl}methanimidamide], in the assay with Hsp90/Cdc37 [2], the “normalized RLU (FIMM Screening-2, scaffold based)” value is 0.39 and the “Average RLU (FIMM Screening-2, scaffold based)” value turned out to be 19772 RLU.

Turning to `O=C(CSc1nc2ccccc2s1)c1ccc(O)c(O)c1` [SC9, 2-(1,3-benzothiazol-2-ylsulfanyl)-1-(3,4-dihydroxyphenyl)ethan-1-one], in the assay on Hsp90/Cdc37 [2], the “normalized RLU (FIMM Screening-2, scaffold based)” value stood at 0.64 and the “Average RLU (FIMM Screening-2, scaffold based)” value came out at 32657 RLU. Also, the IC50 at N-Hsp90/Cdc37 is 64 ± 9 µM. Besides, the IC50 at Hsp90/Cdc37 [1] is 72 ± 10 µM.

As for `O=C(O)c1cc(S(=O)(=O)Nc2cccc(Cl)c2)ccc1O` [SC22, 5-[(3-chlorophenyl)sulfamoyl]-2-hydroxybenzoic acid], in the assay on Hsp90/Cdc37 [2], the “normalized RLU (FIMM Screening-2, scaffold based)” value is listed as 0.73 and the “Average RLU (FIMM Screening-2, scaffold based)” value was 37332 RLU.

Consider `O=c1c(O)cc([C@H]2Oc3cc(O)cc(O)c3C[C@H]2O)cc2c([C@H]3Oc4cc(O)cc(O)c4C[C@H]3O)cc(O)c(O)c12` [compound 1, Theaflavin], for which, in the assay on Hsp90/Cdc37 [2], the “normalized RLU (FIMM Screening-1)” value turned out to be 0.25 and the “Average RLU (FIMM Screening-1)” value was 12261 RLU. Moreover, the IC50 on Hsp90/Cdc37 [1] came out at 29.3 µM.

On to `O=C(O[C@@H]1Cc2c(O)cc(O)cc2O[C@@H]1c1cc(O)c(=O)c2c(O)c(O)cc([C@H]3Oc4cc(O)cc(O)c4C[C@H]3OC(=O)c3cc(O)c(O)c(O)c3)c2c1)c1cc(O)c(O)c(O)c1` [compound 2, Theaflavin 3,3-digallate], for which, in the assay on Hsp90/Cdc37 [2], the “normalized RLU (FIMM Screening-1)” value is 0.12. In addition, in the assay on Hsp90/Cdc37 [2], the “Average RLU (FIMM Screening-1)” value came to 5883 RLU. Moreover, the values for the IC50 on N-Hsp90/Cdc37 and at Hsp90/Cdc37 [1] were 81 ± 16 µM and 75 ± 26 µM, respectively.

Consider `O=C(O[C@@H]1Cc2c(O)cc(O)cc2O[C@@H]1c1cc(O)c(O)c(O)c1)c1cc(O)c(O)c(O)c1` [compound 3, Epigallocatechin gallate], for which the “normalized RLU (FIMM Screening-1)” value in the assay with Hsp90/Cdc37 [2] is reported as 0.45. In addition, in the assay on Hsp90/Cdc37 [2], the “Average RLU (FIMM Screening-1)” value was determined as 22619 RLU. Also, the results for the half-maximal inhibitory concentration (IC50) at N-Hsp90/Cdc37 and on Hsp90/Cdc37 [1] were 57 ± 14 µM and 88 ± 23 µM, respectively.

In the case of `NC[C@@H]1O[C@H](O[C@H]2[C@@H](O)[C@H](O[C@@H]3[C@@H](O)[C@H](N)C[C@H](N)[C@H]3O[C@H]3O[C@H](CO)[C@@H](O)[C@H](O)[C@H]3N)O[C@@H]2CO)[C@H](N)[C@@H](O)[C@@H]1O` [compound 6, Paromomycin sulfate, reference compound], in the assay with Hsp90/Cdc37 [2], the “normalized RLU (FIMM Screening-1)” value stood at 0.67 and the “Average RLU (FIMM Screening-1)” value is listed as 33633 RLU.

As for `Cc1ccc(Nc2ccc(C(=O)O)cc2N)cc1` [compound 7, 3-amino-4-(4-toluidino)benzoic acid], the “normalized RLU (FIMM Screening-1)” value with Hsp90/Cdc37 [2] stood at 0.56. The “Average RLU (FIMM Screening-1)” value in the assay with Hsp90/Cdc37 [2] is on record as 28120 RLU. Besides, the results for the IC50 on N-Hsp90/Cdc37 and on Hsp90/Cdc37 [1] were 322 ± 50 µM and 177 ± 31 µM, respectively.

`O=C(O[C@@H]1Cc2c(O)cc(O)cc2O[C@@H]1c1cc(O)c(=O)c2c(O)c(O)cc([C@H]3Oc4cc(O)cc(O)c4C[C@H]3O)c2c1)c1cc(O)c(O)c(O)c1` [compound 8, Theaflavin monogallates]: in the assay on Hsp90/Cdc37 [2], the “normalized RLU (FIMM Screening-1)” value was 0.25 and the “Average RLU (FIMM Screening-1)” value stood at 12688 RLU. Moreover, the IC50 at Hsp90/Cdc37 [1] came to 14.1 µM.

`Cc1cc(OCC(=O)Nc2ccccc2C(=O)O)cc(C)c1Cl` [×1127, 2-[2-(4-chloro-3,5-dimethylphenoxy)acetamido]benzoic acid]: in the assay with Hsp90/Cdc37 [2], the “normalized RLU (FIMM Screening-2, scaffold based)” value is 0.66 and the “Average RLU (FIMM Screening-2, scaffold based)” value was 33660 RLU. Further, the IC50 on N-Hsp90/Cdc37 amounted to 11 ± 1 µM. Also, the IC50 on Hsp90/Cdc37 [1] was found to be 41 ± 10 µM.

For the molecule `O=C(CSS(=O)(=O)O)Nc1cccc(C(F)(F)F)c1` [×1625, [({[3-(trifluoromethyl)phenyl]carbamoyl}methyl)sulfanyl]sulfonate], the “effect on spheroid formation” value with MDA-MB-231 cells, with SK-BR-3 cells, with HCC-44 cells and in the assay with MIA PaCa-2 cells was “did not decrease” in each case. Besides, the values for the IC50 on N-Hsp90/Cdc37 and at Hsp90/Cdc37 [1] were 94 ± 3 µM and 41 ± 8 µM, respectively. Also, on Hsp90/Cdc37 [1], the “normalized RLU” value is 0.47. For the same molecule, on Hsp90/Cdc37 [1], the “Average RLU” value came out at 117361 RLU. The “competition with FITC-geldanamycin (ATP-pocket binding, polarization signal)” value at Hsp90α (N-terminal) is given as “None of these four compounds displaced”.

For `O=c1c(O)c(-c2ccc(O)c(O)c2)oc2cc(O)cc(O)c12` [×1742, 2-(3,4-dihydroxyphenyl)-3,5,7-trihydroxy-4H-chromen-4-one dihydrate (quercetin dihydrate)], the “effect on spheroid formation” value was “significantly increased” in the assay with MDA-MB-231 cells, “did not decrease” in the assay on SK-BR-3 cells, “did not decrease” in the assay on HCC-44 cells and “significantly increased” in the assay with MIA PaCa-2 cells. The “normalized RLU” value on Hsp90/Cdc37 [1] is reported as 0.40. For the same molecule, the “Average RLU” value at Hsp90/Cdc37 [1] is recorded as 100349 RLU. Further, at Hsp90α (N-terminal), the “competition with FITC-geldanamycin (ATP-pocket binding, polarization signal)” value is recorded as “None of these four compounds displaced”.

In the case of `NC(CSS(=O)(=O)O)=NCCC12CC3CC(CC(O)(C3)C1)C2` [×7648, 1-[2-[(1-amino-2-sulfosulfanylethylidene)amino]ethyl]-3-hydroxyadamantane], in the assay with Hsp90/Cdc37 [2], the “normalized RLU (FIMM Screening-1)” value was 0.22 and the “Average RLU (FIMM Screening-1)” value is on record as 10978 RLU. The IC50 on N-Hsp90/Cdc37 amounted to 14 ± 4 µM. Moreover, on Hsp90/Cdc37 [1], the IC50 amounted to 18 ± 2 µM.

As for Enamine compound T5807719 [compound 4], in the assay with Hsp90/Cdc37 [2], the “normalized RLU (FIMM Screening-1)” value was found to be 0.48 and the “Average RLU (FIMM Screening-1)” value was determined as 24009 RLU.

Take Enamine compound T6605315 [compound 5]: in the assay with Hsp90/Cdc37 [2], the “normalized RLU (FIMM Screening-1)” value was 0.57 and the “Average RLU (FIMM Screening-1)” value is recorded as 28274 RLU.
